Patent publication US5693812A, “Polymorphic forms of an angiotensin II antagonist” (priority 1996, dated 1997)
Entries after “also recorded” stand apart in the source; their conditions may differ. Structures can show the parent of a compound that is named as a salt.

Assays:
Assay type in all cases: physicochemical
[1] = Crystal form conversion in acetonitrile, with or without water (XRPD); conditions: overnight, room temperature, potassium salt; for crystal form after stirring/shaking in acetonitrile: no added water; for crystal form after shaking in acetonitrile-water: acetonitrile with added water
Source text: Since all of the crystal forms of 3-[2'-(N-benzoyl)sulfonamidobiphenyl-4-yl]methyl-5,7-dimethyl-2-ethyl-3H-imidazo[4,5-b]pyridine potassium salt were changed to a single crystal form "D", in water, the effect of a non-aqueous solvent was studied. 3-[2'-(N-benzoyl)sulfonamidobiphenyl-4-yl]methyl-5,7-dimethyl-2-ethyl-3H-imidazo[4,5-b]pyridine potassium salt, Forms "A", "B", "C", and "D" were stirred overnight at room temperature in acetonitrile. The remaining solids were filtered and then vacuum dried overnight at room temperature. The crystallinity of the solids was examined by XRPD spectroscopy.
All of the crystal forms were converted to a single crystal form ("D") in water, but in acetonitrile to two different crystal forms. […] To explore the role of water in the above experiments, 3-[2'-(N-benzoyl)sulfonamidobiphenyl-4-yl]methyl-5,7-dimethyl-2-ethyl-3H-imidazo[4,5-b]pyridine potassium salt, form "C" (an anhydrous crystal form) was this time suspended in acetonitrile with added water (water was 10% of the solid weight). As a control experiment Form "C" was also suspended in acetonitrile with no added water. The samples were shaken overnight at room temperature. The remaining solids were filtered and vacuum dried overnight at room temperature.

[2] = Heat of solution by solution calorimetry (Setaram C-80); conditions: potassium salt
Procedure: The heat of solution of different crystal forms of 3-[2'-(N-benzoyl)sulfonamidobiphenyl-4-yl]methyl-5,7-dimethyl-2-ethyl-3H-imidazo[4,5-b]pyridine potassium salt were studied at 30° C. The heat of solution is a measure of the crystal lattice energy. […] Heats of solution had to be conducted in a solvent which dissolved the samples quickly without conversion to another polymorph. This really limited solvents which could be used. Dimethylsulfoxide was chosen for this reason. The heats of solution therefore have contributions from the lattice energy of the solid as well as heat of dilution of lattice water in dimethylsulfoxide. The calorimeter therefore produces a complex signal that has an exothermic contribution from the water and an additional contribution from the energy required to dissolve the crystal. […] Additional heats of solution were determined in a mixed solvent system of 88% dimethylsulfoxide and 12% water. This system was used to minimize the contribution of moisture to the heat of solution.
(§1) The crystal forms were characterized and evaluated by measuring the heats of solution or solution calorimetry, solubility data, x-ray powder diffraction patterns (XRPD), differential scanning calorimetry (DSC) and thermogravimetric analysis (TGA). Heats of solution at 30° C. were obtained in the Setaram C-80 calvet calorimeter with sample size of 7-13 mg dissolved into 5 ml of 88% DMSO 12% water for a final concentration of 1.4-2.6 mg/ml. XRPD patterns were recorded using an automated Siemens X-ray diffractometer with copper tube K alpha radiation. DSC and TGA were conducted using a Perkin Elmer series 7 instrument with a scan rate of 10° C./min over the temperature range of 30°-300° C.

[3] = Thermogravimetric analysis (TGA) weight loss / water content; conditions: potassium salt; for hydration state: TGA
Procedure: as §1, with “30°-300° C. Utilizing these techniques the thermodynamic stability of the polymorphs of 3-[2'-(N-benzoyl)sulfonamidobiphenyl-4-yl]methyl-5,7-dimethyl-2-ethyl-3H-imidazo[4,5-b]pyridine potassium salt was determined.” for “30°-300° C.”
Step K: Preparation of 3-[2'-(N-Benzyl)sulfonamidobiphenyl-4-yl]methyl-5,7-dimethyl-2-ethyl-3H-imidazo[4,5-b]pyridine potassium salt--(Forms I, Id and W) [drawing 13] In a 72-L four-necked flask fitted with an overhead stirrer and a reflux condenser, 3-[2'-(N-benzyl)sulfonamidobiphenyl-4-yl]methyl-5,7-dimethyl-2-ethyl-3H-imidazo[4,5-b]pyridine 1 (5.04 kg, 9.6 mol), methanol (14.5 L) and water (2.5 L) are mixed. The slurry is warmed to 62° C. under a nitrogen atmosphere and 1.94M potassium hydroxide (4.96 L, 9.61 mol) is added to the slurry at 62° C. over 1.5 hours to provide a homogeneous solution. Isopropyl acetate (13.83 L) is then added at 65° C. and the mixture is warmed to 70° C. The homogeneous solution is filtered at 70° C. to remove any particulates that are present. The filtrate is diluted with isopropyl acetate (1.3 L), methanol (0.6 L) and water (0.1 L). […] The homogeneous mixture is cooled to 52° C. over 2 hours, whereupon potassium salt seed of form "I" (140 g) is added. This mixture becomes cloudy after 30 min. The mixture is aged for 10 hours at 52° C. The white slurry is cooled to 48° C. over 1 hour and stirred for 3 hours. Finally, the crystallization mixture is cooled to 0° C. at a rate of 1° C./12.5 min. and aged for 2 hours at 0° C. […] The solid is centrifuged at 0° C. and displacement-washed with a mixture of 2:2:1 cold (0° C.) isopropyl acetate/methanol/water (5.65 L) followed by isopropyl acetate (2.3 L). The solid is semi-dried to a TG of 10-15% by spin drying. The mother liquors contain 21 wt % of 3-[2'-(N-benzyl)sulfonamidobiphenyl-4-yl]methyl-5,7-dimethyl-2-ethyl-3H-imidazo[4,5-b]pyridine potassium salt. At this stage, the crystal form of the product is form "W". The product is powdered by passing through a screen (size=12). The solid is dried by passing dry nitrogen over the solid under vacuum at 22° C. for 5 hours to yield 4.55 kg of 3-[2'-(N-benzyl)sulfonamidobiphenyl-4-yl]methyl-5,7-dimethyl-2-ethyl-3H-imidazo[4,5-b]pyridine potassium salt as the form "I" with a purity of 99.7% (assay-HClO4 titration) and TG of 7-10%. Generally, the wet cake consists of residual water, methanol and isopropyl acetate. The K-salt is considered dry when <0.05% methanol and isopropyl acetate are detected by ^1 H NMR. The product is further powdered by passing the solid through a Quadro Comil (model 197s, screen size=1143 mm round impeller) to yield 4.5 kg. The product is dried to a TG of 4.6-5.5% by the passage of dry nitrogen over the solid under vacuum at 22° C. After 10 hours, 4.24 kg (78%) of the potassium salt as the form "I" is obtained with a TG of […] (99.7 wt % by titration). The water content can be monitored by TG analysis. The TG of the potassium salt of form "I" is 4.6-5.5%. The crystal form is monitored by X-ray analysis. When the potassium salt is over dried, the crystal form converts to form "Id" (TG<4.6%). […]

[4] = Equilibrium solubility in water at room temperature; conditions: room temperature
[5] = Crystal form stability on heating
[6] = Crystal form stability in water (XRPD of remaining solid); conditions: room temperature, potassium salt
Source text: [13) S. R. Byre. "Solid State Chemistry of Drugs." Academic Press, New York, 1982.] […] Recrystallization of any of these lots from solvents like ethanol, methanol, isopropanol, acetone, etc. gave new crystal forms different from the original forms. […] Solubility in water at room temperature was one of these techniques. The equilibrium solubility in water, at room temperature for five polymorphs (Forms "B", "C", "D", "F", and "G") were the same (Table 1). When the remaining solids were filtered, air dried or vacuum dried overnight at room temperature the XRPD patterns had changed from the initial patterns and all were exactly the same. These experiments indicate that all of the crystal forms converted in water at room temperature to a new crystalline form designated […].
The remaining form "I" solid after equilibrium solubility studies in water was removed by filtration and vacuum dried overnight at room temperature.
After the discovery of form "I", form "D" could no longer be isolated in our laboratory. TGA studies indicate that form "I" of 3-[2'-(N-benzoyl)sulfonamidobiphenyl-4-yl]methyl-5,7-dimethyl-2-ethyl-3H-imidazo[4,5-b]pyridine potassium salt is a dihydrate (FIG. 4).

Compound: CCc1nc2c(C)cc(C)nc2n1Cc1ccc(-c2ccccc2S(=O)(=O)NC(=O)c2ccccc2)cc1 [Form A, 3-[2'-(N-benzoyl)sulfonamidobiphenyl-4-yl]methyl-5,7-dimethyl-2-ethyl-3H-imidazo[4,5-b]pyridine potassium salt]
- crystal form after stirring/shaking in acetonitrile ([1]; listed as A): converted to a new crystal form ("I"); also recorded: changed to form "I"
- ΔH solution DMSO at 30° C. ([2]; 30° C., listed as A): 4.92 ± 0.47 J/g
- % Weight Loss (Δ 30-150° C. by TGA) ([3]; listed as A): 3.4%
- hydration state ([3]; listed as A): hydrated

Compound: CCc1nc2c(C)cc(C)nc2n1Cc1ccc(-c2ccccc2S(=O)(=O)NC(=O)c2ccccc2)cc1 [Form B, 3-[2'-(N-benzoyl)sulfonamidobiphenyl-4-yl]methyl-5,7-dimethyl-2-ethyl-3H-imidazo[4,5-b]pyridine potassium salt]
- crystal form after stirring/shaking in acetonitrile ([1]; listed as B): changed to another new form ("J")
- ΔH solution DMSO at 30° C. ([2]; 30° C., listed as B): 17.78 ± 0.52 J/g
- equilibrium solubility in water, comparison of five polymorphs [4]: the same
- % Weight Loss (Δ 30-150° C. by TGA) ([3]; listed as B): 0.5%
- hydration state ([3]; listed as B): anhydrous

Compound: CCc1nc2c(C)cc(C)nc2n1Cc1ccc(-c2ccccc2S(=O)(=O)NC(=O)c2ccccc2)cc1 [Form C, 3-[2'-(N-benzoyl)sulfonamidobiphenyl-4-yl]methyl-5,7-dimethyl-2-ethyl-3H-imidazo[4,5-b]pyridine potassium salt]
- crystal form after shaking in acetonitrile-water ([1]; listed as C): converted to form "I"
- crystal form after stirring/shaking in acetonitrile ([1]; listed as C): changed to another new form ("J")
- ΔH solution DMSO at 30° C. ([2]; 30° C., listed as C): 29.75 ± 0.46 J/g
- % Weight Loss (Δ 30-150° C. by TGA) ([3]; listed as C): 0.6%
- hydration state ([3]; listed as C): anhydrous

Compound: CCc1nc2c(C)cc(C)nc2n1Cc1ccc(-c2ccccc2S(=O)(=O)NC(=O)c2ccccc2)cc1 [Form D, 3-[2'-(N-benzoyl)sulfonamidobiphenyl-4-yl]methyl-5,7-dimethyl-2-ethyl-3H-imidazo[4,5-b]pyridine potassium salt]
- crystal form after heating at 40° C. for 30 minutes ([5]; 40° C., 30 minutes): did not change
- crystal form after heating at 40° C. for 24 hours ([5]; 40° C., 24 hours): crystallinity was reduced and XRPD pattern changed to a new form called "F"
- crystal form after heating up to 190° C. ([5]; up to 190° C., a few minutes): produced a new crystalline anhydrous form designated "G"
- crystal form after shaking in acetonitrile-water ([1]; listed as D): the final crystal form was also "I"
- crystal form after stirring/shaking in acetonitrile ([1]; listed as D): converted to a new crystal form ("I"); also recorded: changed to form "I"
- ΔH solution 88% DMSO/12% H2O ([2]; 88% DMSO/12% H2O, 30° C., listed as D): -16.33 ± 1.61 J/g
- ΔH solution DMSO at 30° C. ([2]; 30° C., listed as D): -1.36 ± 0.42 J/g
- thermodynamic stability ([2]; from heats of solution and equilibrium solubility, listed as D): metastable with respect to "I"
- crystal form after suspension in water ([6]; listed as D): converted to form "I"
- solubility ([4]; water, Table I): 10.4 ± 0.7 mg/mL
- % Weight Loss (Δ 30-150° C. by TGA) ([3]; listed as D): 12-14%
- hydration state ([3]; listed as D): hydrated

Compound: CCc1nc2c(C)cc(C)nc2n1Cc1ccc(-c2ccccc2S(=O)(=O)NC(=O)c2ccccc2)cc1 [Form F, 3-[2'-(N-benzoyl)sulfonamidobiphenyl-4-yl]methyl-5,7-dimethyl-2-ethyl-3H-imidazo[4,5-b]pyridine potassium salt]
- crystal form after suspension in water ([6]; listed as F): converted to form "D"

Compound: CCc1nc2c(C)cc(C)nc2n1Cc1ccc(-c2ccccc2S(=O)(=O)NC(=O)c2ccccc2)cc1 [Form G, 3-[2'-(N-benzoyl)sulfonamidobiphenyl-4-yl]methyl-5,7-dimethyl-2-ethyl-3H-imidazo[4,5-b]pyridine potassium salt]
- ΔH solution DMSO at 30° C. ([2]; 30° C., listed as G): 8.51 ± 0.66 J/g
- crystal form after suspension in water ([6]; listed as G): converted to form "D"
- % Weight Loss (Δ 30-150° C. by TGA) ([3]; listed as G): 0%
- hydration state ([3]; listed as G): anhydrous

Compound: CCc1nc2c(C)cc(C)nc2n1Cc1ccc(-c2ccccc2S(=O)(=O)NC(=O)c2ccccc2)cc1 [Form J, 3-[2'-(N-benzoyl)sulfonamidobiphenyl-4-yl]methyl-5,7-dimethyl-2-ethyl-3H-imidazo[4,5-b]pyridine potassium salt]
- % Weight Loss (Δ 30-150° C. by TGA) ([3]; listed as J): 0.7%
